# Test results published in US20260355144A1, “METAP2 INHIBITORS FOR THE TREATMENT OF PULMONARY FIBROSIS” (SynDevRx , Inc., priority 2022, published 2026).
# Assays:
# Assay type in all cases: in vivo, C57BL/6 mice
# [1] = system: aged, male, bleomycin-treated mice; experiment: Automated histopathological analysis of lung samples, Example 1
# Description: (§1) Treatment: seven groups of mice were treated as put forth in Table A. Mice in groups 2-7 were challenged with bleomycin solution on Day 0 of the study by a single oropharyngeal installation of bleomycin solution such that the mice were given 1.5 U/kg based on the average body weight of the animals. On day 6 of the study, all mice were randomized based on body weight loss plus their PenH value (see below) as measured on Day 6.
# (§2) Mice in treatment groups 1 and 2 were administered a vehicle control subcutaneously once every 4 days (Q4D) from day 7 to day 21. Mice in treatment group 3 were administered SDX-7320 subcutaneously Q4D from day 7 to day 21 at a dose of 8 mg/kg (i.e., 4 doses). Mice in treatment group 4 were administered pirfenidone orally (PO) twice a day (BID) from day 7 to day 21 at a dose of 100 mg/kg. […]
# Histopathological Analysis: Automatic quantification of morphological features of pulmonary fibrosis were performed using MorphoQuant™ (Biocellvia, France), an automated AI-based digital pathology software for quantification, from the digitalized images (scans) of PSR-stained or antibody labeled lung sections. MorphoQuant™ uses principles of morphometric analysis to detect and quantify specific lung disease features from histological slides (Gilhodes et al. 2017; Michaudel, Fauconnier, et al. 2018). […]
# [2] = system: aged, male, bleomycin-treated mice; experiment: Respiratory function by whole-body plethysmography (PenH, respiratory rate), Example 1; details: FIG. 3, day 20 post BLM; SDX-7320 8 mg/kg SC Q4D; nintedanib 50 mg/kg PO QD; pirfenidone 100 mg/kg PO BID
# Description: Animals: Aged, male C57BL/6 mice from Jackson Laboratories, 72 weeks old at the time of randomization were used in this study.
# Mice in treatment groups 1 and 2 were administered a vehicle control subcutaneously once every 4 days (Q4D) from day 7 to day 21. […]
# Respiratory Function: Respiratory function of the mice were measured using plethysmography. […] After the acclimatization period, the baseline functional respiratory parameters were measured by the whole-body plethysmograph (VivoFlow by SCIREQ) on Day 6 (before treatment introduction and process to the randomization), Days 13 and 20, post-BLM administration. […] The functional respiratory parameters analyzed include respiratory rate and PenH (pulmonary congestion index). […]
# [3] = system: aged, male, bleomycin-treated mice; experiment: Wet lung weight (edema), Example 1; details: FIG. 6, day 21, compared to BLM-treated mice; SDX-7320 8 mg/kg SC Q4D; nintedanib 50 mg/kg PO QD; pirfenidone 100 mg/kg PO BID
# Description: as §1
# as §2, with “mg/kg. Mice in treatment group 5 were administered nintedanib orally (PO) once a day (QD) from day 7 to day 21 at a dose of 50 mg/kg.” for “mg/kg.”
# Lung weight: Lungs were harvested, and the wet lung weights (signifying edema) were recorded.
# Statistical Analysis: All parameters were analyzed in the same manner and results were expressed as means±SEM with Graph Pad Prism Software version 8.0 (San Diego, CA, USA). […]
SMILES,"deposition of collagen in lung tissue ([1]; FIG. 22 and Table C, COL1A1, following exposure to bleomycin, SDX-7320 8 mg/kg SC Q4D, nintedanib 50 mg/kg PO QD)","COL1A1 area (%) ([1]; Table C/FIG. 22, aged male mice, bleomycin 1.5 U/kg oropharyngeal, treatment day 7 to 21, SDX 8 mg/kg SC Q4D, Nin 50 mg/kg PO QD, ab270993 antibody labeled)",pulmonary congestion (PenH) [2],lung weight (wet) [3]
"COC(=O)c1ccc2c(c1)NC(=O)/C2=C(\Nc1ccc(N(C)C(=O)CN2CCN(C)CC2)cc1)c1ccccc1 [nintedanib, Methyl (Z)-3-[[[4-[N-methyl-2-(4-methylpiperazin-1-yl)acetamido]phenyl]amino](phenyl)methylene]-2-oxoindoline-6-carboxylate]",almost no activity,1.387 ± 1.638,increased the pulmonary congestion,did not significantly reduce lung weight
"Cc1ccc(=O)n(-c2ccccc2)c1 [pirfenidone, 5-Methyl-1-phenyl-1H-pyridin-2-one]",,,,did not significantly reduce lung weight
